Measurements published in a melting point compilation (Tetko et al.; mined from patent text by program, amines drawn as free bases though some values may be those of a salt).

Point of comparison: `CCc1c(CC(O)N2CCN(c3cc(C)ccn3)CC2)c2cccc3c2n1CCC3` (centres undefined), melting point 60 °C. Against it:
- Cc1cc(C)nc(S(=O)(=O)Nc2c(Cl)ccc(C)c2Cl)n1 — higher, 234 to 235 °C
- CC(C)(OCCCCCCCCc1csc(-c2ccccc2)n1)C(=O)O — higher, 64 to 70 °C
- CC(CC[Si](CCC(C)[N+](=O)[O-])(c1ccccc1)c1ccccc1)[N+](=O)[O-] (centres undefined) — higher, 84 to 85 °C
- NNc1ccc(-c2nnn(Cc3ccccc3)n2)cc1 — higher, 182 to 185 °C
- N#Cc1cc([N+](=O)[O-])ccc1OCc1ccc2ccccc2n1 — higher, 161 to 162 °C
- Cc1oc(-c2ccccc2)nc1COc1ccc(Cn2cc(CC(=O)O)c(-c3ccccc3)n2)cn1 — higher, 144 to 145 °C
- O=C(NNS(=O)(=O)c1ccccc1)c1ccc(NCc2ccccc2)cc1 — higher, 214 to 215 °C
- CCCCCCCCCCCCCCCOCCSCCCO — lower, 44 to 47 °C
- CN[C@@H]1COc2cc(Cl)cc(-c3ccc(Cl)cc3Cl)c2O1 — higher, 140 °C
- Oc1cc(-c2ccccc2)nc2ccc(Cl)cc12 — higher, > 350 °C
- COc1nc(C)nc(NC(=O)NS(=O)(=O)c2csc3ccccc23)n1 — higher, 187 to 188 °C
- CCC1c2cccn2-c2ccc(C(F)(F)F)cc2N1S(=O)(=O)c1ccc(OC)c(C)c1 (centres undefined) — higher, 151 to 154 °C
- Cc1c(NC(=O)CC(C)(C)C)c(C)c2c(c1-c1ccccc1)OCC2c1ccc(C(C)C)cc1 (centres undefined) — higher, 178 to 182 °C
- CCN1CCN(c2cccc3ccc(-c4cccc(NS(C)(=O)=O)c4)cc23)CC1 — higher, 100 to 101 °C
- COc1cccc(P(=O)(c2ccc(C)cc2)c2ccc(C)cc2)c1I — higher, 146 to 148 °C
- NC(=O)Cc1c[nH]c2ccc(OCc3ccccc3)cc12 — higher, 137 to 140 °C
- Cc1ccc(S(=O)(=O)N[C@@H]2COC(=O)[C@H]2Cc2ccccc2)cc1 — higher, 108 to 109 °C
- CC(C)(C)C(=O)OC1=CC(=O)C(=O)c2ccccc21 — higher, 125 to 126 °C
- CNC(=O)NS(=O)(=O)c1ccccc1CCC(F)(F)F — higher, 176 to 177 °C
- COCCC(=O)Nc1cccc(-c2cccc3cc(Cc4cccc(C(F)(F)F)c4)sc23)c1 — higher, 102 to 103 °C
- CC(C)(C(=O)O)c1ccc(OCCCc2cc3c(cc2O)CC(CCc2ccccc2)O3)cc1 (centres undefined) — higher, 134 to 136 °C
- CCCc1c(OCCCCCCc2ccc(O)c(O)c2Cl)ccc(C(=O)O)c1O — higher, 145 to 146 °C
- CCOC(=O)c1ccccc1Nc1c([N+](=O)[O-])cc(C(F)(F)F)cc1[N+](=O)[O-] — higher, 152 to 154 °C
- COC(=O)c1cnc(S)n1C1CCCC2CCCCC21 (centres undefined) — higher, 84 to 86 °C
- CCOC(=O)c1ccc(OCCCN2CCN(c3ccc(Cl)nn3)CC2)cc1 — higher, 125 to 127 °C
- CCOC(=O)c1nc(N)sc1-c1nc2ccccn2c1C — higher, 180 to 182 °C
- CCN(C(=O)C(NS(=O)(=O)c1c(C)cc(C)cc1C)C(C)C)c1ccccc1 (centres undefined) — higher, 156 to 158 °C
- Cc1cccc(C(O)C2C(c3ccccc3)CC(=O)N2C)c1 (centres undefined) — higher, 163 to 165 °C
- CC(=O)OCC1OC(OCC(=O)c2cc(OCc3ccccc3)c(OCc3ccccc3)c(OCc3ccccc3)c2)C(OC(C)=O)C(OC(C)=O)C1OC(C)=O (centres undefined) — higher, 156 to 158 °C
- COCCOc1ccc(-c2nc(C(=O)Nc3nccs3)c(-c3ccc(Cl)cc3)[nH]2)cc1 — higher, 147 to 148 °C
- CCOC(=O)CNC(=O)CC(=O)CCl — higher, 96 to 97 °C
- CCn1nc(-c2ccc(F)cc2)c(-c2ccc(S(C)(=O)=O)cc2)cc1=O — higher, 177 to 179 °C
- CCCCCCCCCCC=CCc1c[nH]c(C=O)c1 — lower, 29 to 32 °C
- COc1cc2c(OC)nc3c4ccccc4nc(OC)c3c2cc1OC — higher, 173 to 175 °C
- O=C(Nc1ccc(C#CC2(O)CN3CCC2CC3)cc1)C(F)(F)F (centres undefined) — higher, 222 to 223 °C
- CCCN(CCC)C1Cc2c[nH]c3ccc(C(=O)C(C)(C)C)c(c23)C1 (centres undefined) — higher, 92 °C
- O=C(C1CCCCC1)C1CCN(Cc2cc(O)c(O)cc2[N+](=O)[O-])CC1 — higher, 240 °C
- CCOC(=O)Cc1ccc(NC(=O)C(COc2cccc(Cl)c2)NS(=O)(=O)c2ccc(I)cc2)cc1 (racemic) — higher, 169 to 170 °C
- Oc1cccc2ccc(C=Cc3ccccc3)nc12 — higher, 70 to 72 °C
- Nc1ccc(C2=NNC(=O)Cc3cc4c(cc32)OCO4)c(Cl)c1 — higher, 238 to 240 °C
- O=C1N(N2CCOCC2)c2ccccc2C1(O)Cc1ccccn1 (centres undefined) — higher, 168 to 170 °C
- Cc1nc2c(N)nc3cccnc3c2n1CC1(O)CCN(C(=O)N2CCOCC2)CC1 — higher, 245 to 248 °C
- CCOC(=O)c1cnc2c(cnn2CC)c1NN=C(C)CC#N — higher, 190 to 191 °C
- CCCN(CCC)[C@H]1Cc2c[nH]c3ccc(-c4ccno4)c(c23)C1 — higher, 126 to 127 °C
- COC(=O)C#CC(=O)c1ccc(Cl)c(Cl)c1 — lower, 58 to 59 °C
- CCCCCCCCCCCCCCOc1ccc(C(=O)Oc2ccc(-c3ncc(C(=O)O[C@@H](C)CCCCCC)cn3)cc2)cc1 — higher, 85.4 °C
- CCCCCC(O)c1cccc(OCc2cccc(C(N)=O)c2)c1 (centres undefined) — higher, 97 to 98 °C
- CN(C)C(=O)c1nc(-c2ccccc2)nc2c1c1ccc(Cl)cc1n2C — higher, 211 to 213 °C
- Cc1ccc2cccc(OCc3cc(N(C)C(=O)CN4C(=O)c5ccccc5C4=O)ccc3Cl)c2n1 — higher, 120 to 124 °C
- O=C(NCC12CC3CC(CC(C3)C1)C2)c1cc(-c2ccc(F)cc2C(=O)O)ccc1Cl — higher, 126 to 128 °C
- COC(=O)c1ccc(S(C)(=O)=O)c(C(=O)NC(C)(C)CO)c1Cl — higher, 70 to 72 °C
- CCC(NS(C)(=O)=O)P(=O)(Oc1ccccc1)Oc1ccccc1 (centres undefined) — higher, 136 to 139 °C
- O=C(O)c1ccc2c(=O)n3c(nc2c1)C(=Cc1ccccc1)CC3 — higher, 382 to 384 °C
- CN(Cc1ccc(F)cc1)C(=O)c1cnc2c3c(ccc2c1)C(=O)C(C(=O)O)C=N3 (centres undefined) — higher, 245 to 246 °C
- CC(C)(C)OC(=O)NC(Cc1ccc(O)cc1)C(=O)N1CCc2c(sc(N)c2C(=O)c2ccccc2)C1 (centres undefined) — higher, 143 to 145 °C
- Cc1c(Nc2c(C#N)cncc2-c2cc3cc(CN4CCN(C)CC4)ccc3o2)ccc2[nH]ccc12 — higher, 162 to 165 °C
- CCOc1c(F)cc2[nH]c(=O)c(=O)[nH]c2c1[N+](=O)[O-] — higher, 293 to 295 °C
- CCOC(=O)C1C(=O)N(c2ccccc2)c2cc3ccoc3cc21 (centres undefined) — higher, 108 to 110 °C
- CC(C)(C)OC(=O)N1CCN(C(=O)NNC(=O)OCc2ccccc2)CC1 — higher, 194 to 196 °C
- COc1ccc(/C=C(\C#N)c2ccccc2Br)cc1OC1CCCC1 — higher, 100 to 103 °C
- CC(C)(C)c1cc(NC(=O)c2csc(-c3ccc([N+](=O)[O-])cc3)n2)cc(C(C)(C)C)c1O — higher, 262 to 264 °C
- CC[C@H](NC(=O)OC(C)(C)C)C(=O)OCCCCNc1cccc2c1C(=O)c1ccccc1C2=O — lower, 58 °C
- COC(=O)CC1(C)Oc2ccc([N+](=O)[O-])cc2-n2c(Cl)ccc21 (centres undefined) — higher, 124 to 125 °C
- CCOC(=O)c1nccc(C#N)c1N — higher, 114 to 116 °C
- O=C(c1ccc(Cl)cc1)c1cccc(NC(=O)c2ccn3c2CSC3c2cccnc2)c1 (centres undefined) — higher, 176 °C
- O=c1[nH]c2cc(F)c(NCC3COc4ccccc4C3)cc2o1 (centres undefined) — higher, 223 to 224 °C
- CC(c1ccc(-c2ccccc2)c(F)c1)c1nc(CC#N)no1 (centres undefined) — higher, 111 to 112 °C
- CN1C(=O)CC(C(=O)Nc2ccc(F)cc2)C(=O)c2cc(F)ccc21 (centres undefined) — higher, 180 to 182 °C
